# Measurements published in ChEMBL document CHEMBL5634130, “Exploring the structural-activity relationship of hexahydropyrazino[1,2-d]pyrido[3,2-b][1,4]oxazine derivatives as potent and orally-bioavailable PARP7 inhibitors” (Eur J Med Chem, 2023).
# Columns and labels:
# [1] = target: Cytochrome P450 2C9 (Homo sapiens, UniProt P11712); assay: Inhibition of CYP2C9 in human liver microsomes using diclofenac as substrate preincubated for 10 mins followed by substrate addition measured for 30 mins by LC-MS analysis; type: ADME, Microsome
# [2] = Thermodynamic solubility of compound at pH 2; type: physicochemical; conditions: buffer, read-out: Therm_solubility
# [3] = target: Poly [ADP-ribose] polymerase 2 (Homo sapiens, UniProt Q9UGN5); assay: Inhibition of PARP2 (unknown origin)
# [4] = Kinetic solubility of compound at pH 7.4; type: physicochemical; conditions: buffer, read-out: Kinetic_solubility
# [5] = Metabolic stability in dog liver microsomes assessed as intrinsic clearance preincubated for 5 mins followed by NADPH addition measured for 1 hr by LC-MS analysis; type: ADME, Canis lupus familiaris, Microsome; conditions: time 65 min, read-out: CLH
# [6] = target: Cytochrome P450 2D6 (Homo sapiens, UniProt P10635); assay: Inhibition of CYP2D6 in human liver microsomes using dextromethorphan as substrate preincubated for 10 mins followed by substrate addition measured for 30 mins by LC-MS analysis; type: ADME, Microsome
# Sequence of Cytochrome P450 2D6 (P10635 whole entry): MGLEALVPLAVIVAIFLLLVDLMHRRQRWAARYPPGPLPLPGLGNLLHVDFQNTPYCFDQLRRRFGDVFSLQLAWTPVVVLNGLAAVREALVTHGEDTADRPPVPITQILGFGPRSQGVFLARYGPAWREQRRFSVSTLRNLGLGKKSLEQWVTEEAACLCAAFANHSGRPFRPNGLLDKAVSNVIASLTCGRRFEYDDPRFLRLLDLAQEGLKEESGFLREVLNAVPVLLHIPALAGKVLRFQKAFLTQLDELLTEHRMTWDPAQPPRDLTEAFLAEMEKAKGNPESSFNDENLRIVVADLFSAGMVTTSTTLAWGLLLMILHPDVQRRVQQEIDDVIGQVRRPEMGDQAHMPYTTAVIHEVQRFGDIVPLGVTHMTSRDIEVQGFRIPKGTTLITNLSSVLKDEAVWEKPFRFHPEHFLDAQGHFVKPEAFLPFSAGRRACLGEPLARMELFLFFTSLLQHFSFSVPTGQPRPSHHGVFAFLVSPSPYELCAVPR
# Sequence of Poly [ADP-ribose] polymerase 2 (Q9UGN5 whole entry): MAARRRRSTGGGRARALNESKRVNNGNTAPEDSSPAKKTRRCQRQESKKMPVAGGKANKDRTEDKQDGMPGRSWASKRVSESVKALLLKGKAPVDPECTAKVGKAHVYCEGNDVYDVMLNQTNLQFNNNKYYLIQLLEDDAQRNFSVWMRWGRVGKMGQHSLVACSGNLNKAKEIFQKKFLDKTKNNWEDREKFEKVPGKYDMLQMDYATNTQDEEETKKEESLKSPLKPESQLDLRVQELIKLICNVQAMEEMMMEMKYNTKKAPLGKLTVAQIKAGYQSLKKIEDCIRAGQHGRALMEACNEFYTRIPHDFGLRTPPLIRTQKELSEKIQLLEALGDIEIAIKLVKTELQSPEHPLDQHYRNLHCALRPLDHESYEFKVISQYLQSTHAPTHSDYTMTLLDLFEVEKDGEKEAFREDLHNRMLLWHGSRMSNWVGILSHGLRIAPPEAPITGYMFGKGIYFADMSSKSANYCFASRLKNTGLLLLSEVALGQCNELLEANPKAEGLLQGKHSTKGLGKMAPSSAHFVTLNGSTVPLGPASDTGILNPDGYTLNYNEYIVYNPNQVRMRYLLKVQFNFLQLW
# Sequence of Cytochrome P450 2C9 (P11712 whole entry): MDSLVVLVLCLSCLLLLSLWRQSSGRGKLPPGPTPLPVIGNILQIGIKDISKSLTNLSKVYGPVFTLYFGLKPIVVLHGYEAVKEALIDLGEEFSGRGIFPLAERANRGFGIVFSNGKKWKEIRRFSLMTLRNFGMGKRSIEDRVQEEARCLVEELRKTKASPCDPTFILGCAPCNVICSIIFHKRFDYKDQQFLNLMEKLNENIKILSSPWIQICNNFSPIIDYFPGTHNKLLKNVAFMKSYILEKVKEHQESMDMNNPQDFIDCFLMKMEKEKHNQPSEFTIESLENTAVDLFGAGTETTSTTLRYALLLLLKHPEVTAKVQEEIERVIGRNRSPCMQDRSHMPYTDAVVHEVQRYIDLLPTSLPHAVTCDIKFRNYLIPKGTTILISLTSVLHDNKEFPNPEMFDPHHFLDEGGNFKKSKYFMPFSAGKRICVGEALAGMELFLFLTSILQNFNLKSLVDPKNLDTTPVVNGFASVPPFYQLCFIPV
smiles,measurement,setting,value
O=C(CCOC[C@@H]1CCN1c1cn[nH]c(=O)c1C(F)(F)F)N1CCN2c3ncc(C(F)(F)F)cc3OC[C@@H]2C1,IC50,[1],2010 nM
same,solubility thermodynamic,[2],601 µg/mL
same,IC50,[3],221 nM
same,solubility kinetic,[4],158 µM
same,CLint scaled,[5],9.1 mL/min/kg
same,IC50,[6],> 30000 nM
